Assay in all cases: relative viability (nuclei count vs DMSO), 5 days (fraction); higher = more cells survive
Compound in the assay “Tosedostat + Dasatinib”: CC(C)C[C@@H](C(=O)N[C@H](C(=O)OC1CCCC1)c1ccccc1)[C@H](O)C(=O)NO [Tosedostat] + Cc1nc(Nc2ncc(C(=O)Nc3c(C)cccc3Cl)s2)cc(N2CCN(CCO)CC2)n1 [Dasatinib] (partner 0.075 µM)
The method, boiled down: (§1)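 Five library-drug doses in √10 steps were combined with a fixed anchor-drug dose, or a single drug was given alone, by pin tool to lung cancer cell lines in 1536-well plates the day after seeding. Nuclei were stained and counted after 5 days. Relative viability is the nuclei count in treated wells over that in vehicle wells, taken as the median of duplicate plates.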

Compound in the assay “Tosedostat + Pemetrexed”: CC(C)C[C@@H](C(=O)N[C@H](C(=O)OC1CCCC1)c1ccccc1)[C@H](O)C(=O)NO [Tosedostat] + Nc1nc2[nH]cc(CCc3ccc(C(=O)N[C@@H](CCC(=O)O)C(=O)O)cc3)c2c(=O)[nH]1 [Pemetrexed] (partner 0.2 µM)
The method, boiled down:
as §1

Compound in assay [1]: CC1=NN=C(O1)C2=NN=C(C=C2)N3CCC(CC3)OC4=C(C=CC(=C4)F)Cl + CCNC(=O)c1noc(-c2cc(C(C)C)c(O)cc2O)c1-c1ccc(CN2CCOCC2)cc1 [Luminespib] (partner 0.01 µM)
The method, boiled down: as §1

Compound in the assay “Tosedostat + Crizotinib”: CC(C)C[C@@H](C(=O)N[C@H](C(=O)OC1CCCC1)c1ccccc1)[C@H](O)C(=O)NO [Tosedostat] + C[C@@H](Oc1cc(-c2cnn(C3CCNCC3)c2)cnc1N)c1c(Cl)ccc(F)c1Cl [Crizotinib] (partner 1 µM)
The method, boiled down: as §1

The source of these data is the supplement of paper PMC10307832.

On to UMC-11, for which the relative viability with Tosedostat + Dasatinib (first compound 0.02 µM) stood at 0.499; with Tosedostat + Dasatinib (first compound 0.06325 µM), 0.454; in the assay with Tosedostat + Dasatinib (first compound 0.2 µM), 0.453; in the assay with Tosedostat + Dasatinib (first compound 0.6325 µM) it was 0.448; with Tosedostat + Dasatinib (first compound 2 µM) it was 0.504; with Tosedostat + Pemetrexed (first compound 0.02 µM) it was 0.86. For the same cell line, the relative viability with Tosedostat + Pemetrexed (first compound 0.06325 µM) is 0.723; with Tosedostat + Pemetrexed (first compound 0.2 µM) it was 0.85; with Tosedostat + Pemetrexed (first compound 0.6325 µM) it was 0.84; with Tosedostat + Pemetrexed (first compound 2 µM), 0.94; in assay [1] (first compound 0.253 µM), 0.523; in assay [1] (first compound 0.8 µM) it was 0.572. In addition, the relative viability in assay [1] (first compound 2.53 µM) is 0.453; in assay [1] (first compound 8 µM), 0.552; with Tosedostat + Crizotinib (first compound 0.02 µM), 0.688; in the assay with Tosedostat + Crizotinib (first compound 0.06325 µM), 0.648; with Tosedostat + Crizotinib (first compound 0.2 µM), 0.6; in the assay with Tosedostat + Crizotinib (first compound 0.6325 µM), 0.559. Moreover, in the assay with Tosedostat + Crizotinib (first compound 2 µM), the relative viability amounted to 0.459.
